Measurements from patent publication US10065956B2, “Ethynyl derivatives” (Hoffmann-La Roche Inc., priority 2015, dated 2018).

Columns and labels:
mice [1] = conditions: reported by Addex 2010; cited from earlier work
rats = conditions: cited from earlier work
mice [2] = conditions: reported by Addex 2010; cited from earlier work; remark: listed apart in the source
rodent = conditions: 6-OHDA rodent model of PD; cited from earlier work
mice [3] = conditions: mice treated with MPTP; cited from earlier work
human mGlu4 receptor = target: T1, human mGlu4 receptor (Homo sapiens, UniProt Q14833); experiment: Ca2+ mobilization in vitro assay on recombinant human mGlu4 expressed in HEK293 cells (PAM, L-AP4 at EC20); assay type: cell-based; conditions: for Emax: HEK293, maximal response in % of the maximal stimulatory effect obtained with saturating concentrations of L-AP4, read-out: Eff. (%); for EC50: HEK293 cells expressing human mGlu4, L-AP4 added at EC20
T1 construct: expressed in transfected cells; host or cells: monoclonal HEK-293 cell line, stably transfected
T1 sequence (Q14833 33-912): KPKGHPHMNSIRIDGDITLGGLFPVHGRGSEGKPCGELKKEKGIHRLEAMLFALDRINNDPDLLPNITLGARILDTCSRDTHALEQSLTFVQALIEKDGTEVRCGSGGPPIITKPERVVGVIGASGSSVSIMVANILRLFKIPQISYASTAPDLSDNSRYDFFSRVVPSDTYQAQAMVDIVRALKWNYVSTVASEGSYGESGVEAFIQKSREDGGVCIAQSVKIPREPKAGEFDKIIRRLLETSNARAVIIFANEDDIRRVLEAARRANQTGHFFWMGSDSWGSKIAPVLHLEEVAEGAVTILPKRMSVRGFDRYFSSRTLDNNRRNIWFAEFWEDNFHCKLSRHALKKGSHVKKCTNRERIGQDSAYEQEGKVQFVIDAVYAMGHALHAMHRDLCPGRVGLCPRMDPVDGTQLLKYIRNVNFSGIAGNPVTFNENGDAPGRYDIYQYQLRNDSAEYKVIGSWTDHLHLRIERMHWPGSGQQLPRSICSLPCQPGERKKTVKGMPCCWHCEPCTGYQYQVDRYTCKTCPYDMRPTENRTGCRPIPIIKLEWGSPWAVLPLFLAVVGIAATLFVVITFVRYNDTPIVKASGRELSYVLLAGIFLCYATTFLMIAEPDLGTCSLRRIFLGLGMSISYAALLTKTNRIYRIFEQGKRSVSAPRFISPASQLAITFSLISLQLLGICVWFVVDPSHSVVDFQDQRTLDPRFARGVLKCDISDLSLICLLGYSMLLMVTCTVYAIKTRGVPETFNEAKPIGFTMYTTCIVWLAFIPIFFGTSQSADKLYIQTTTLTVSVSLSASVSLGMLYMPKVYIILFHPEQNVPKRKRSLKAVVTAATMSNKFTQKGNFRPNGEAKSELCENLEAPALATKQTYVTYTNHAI

Row | Emax (human mGlu4 receptor) [%] | EC50 (human mGlu4 receptor) [nM] | Structure (SMILES) | also measured
1 | 95 | 67 | CCN1C(=O)N(c2c(F)cc(C#Cc3ccccc3)cc2F)C(=O)C[C@@]1(C)c1cnn(C)c1 [Example 12, (6S)-3-[2,6-Difluoro-4-(2-phenylethynyl)phenyl]-1-ethyl-6-methyl-6-(1-methylpyrazol-4-yl)hexahydropyrimidine-2,4-dione] | 
2 | 153 | 99 | CN1C(=O)N(c2c(F)cc(C#Cc3ccccc3)cc2Cl)C(=O)C[C@@]1(C)c1cnn(C)c1 [Example 44, (6S)-3-[2-Chloro-6-fluoro-4-(2-phenylethynyl)phenyl]-1,6-dimethyl-6-(1-methylpyrazol-4-yl)hexahydropyrimidine-2,4-dione] | 
3 | 100 | 147 | CN1C(=O)N(c2c(F)cc(C#Cc3ccccc3)cc2F)C(=O)C[C@@]1(C)c1ccnn1C [Example 7, (6S)-3-[2,6-Difluoro-4-(2-phenylethynyl)phenyl]-1,6-dimethyl-6-(2-methylpyrazol-3-yl)hexahydropyrimidine-2,4-dione] | 
4 | 115 | 64 | CCn1cc([C@]2(C)CC(=O)N(c3c(F)cc(C#Cc4ccccc4)cc3F)C(=O)N2C)cn1 [Example 13, (6S)-3-[2,6-Difluoro-4-(2-phenylethynyl)phenyl]-6-(1-ethylpyrazol-4-yl)-1,6-dimethyl-hexahydropyrimidine-2,4-dione] | 

Continued, compound first:

Row | Structure (SMILES) | Emax (human mGlu4 receptor) [%] | EC50 (human mGlu4 receptor) [nM] | also measured
5 | Cc1ccnc(Nc2nc(-c3cn[nH]c3)c(C)s2)n1 [ADX88178] |  |  | activity in EPM (mice [1]): active; profile in the rat EPM test (rats; rat, after oral dosing): anxiolytic-like profile; activity in EPM (rats; rats, reported by Addex 2010): active; activity in marble burying test (mice [2]): active
6 | N[C@@H](CCP(=O)(O)O)C(=O)O [L-AP4, (2S)-2-amino-4-phosphonobutanoic acid] |  |  | neuroprotection in 6-OHDA model (rodent): neuroprotective effects
7 | O=C(Nc1ccccc1)C12CC1/C(=N\O)c1ccccc1O2 (single isomer, unassigned; (-)) [(−)-PHCCC] |  |  | nigrostriatal degeneration (mice [3]): reduced nigrostriatal degeneration
8 | CN1C(=O)N(c2ccc(C#Cc3ccccc3)cc2Cl)C(=O)C[C@@]1(C)c1cnn(C)c1 [Example 37, (6S)-3-[2-Chloro-4-(2-phenylethynyl)phenyl]-1,6-dimethyl-6-(1-methylpyrazol-4-yl)hexahydropyrimidine-2,4-dione] | 175 | 112 | 
9 | CN1C(=O)N(c2c(F)cc(C#Cc3ccccc3)cc2F)C(=O)C[C@@]1(C)c1cncs1 [Example 42, (6S)-3-[2,6-Difluoro-4-(2-phenylethynyl)phenyl]-1,6-dimethyl-6-thiazol-5-yl-hexahydropyrimidine-2,4-dione] | 135 | 86 | 
